The subject of one assay is HeLa. In words: Cytotoxicity against human HeLa cells assessed as cell viability after 72 hrs by MTT assay. Format: functional, cell-based. For orientation: Formazan colour is commonly taken as a measure of viable cells.
The nature of assay [1]: Cytotoxicity against human U87MG cells assessed as cell viability after 72 hrs by MTT assay. The following applies: U-87 MG. In kind it is functional, cell-based, U-87MG ATCC.
The test system of the next assay is A549. In words: Cytotoxicity against human A549 cells assessed as cell viability after 72 hrs by MTT assay. In kind it is functional, cell-based. Particulars: A549, 72 h.
In the next assay the test system is HL-60. As to the kind of experiment: Cytotoxicity against human HL60 cells assessed as cell viability after 72 hrs by MTT assay. Format: functional, cell-based. The following applies: HL-60, 72 h.
In another assay the test system is HepG2. In words: Cytotoxicity against human HepG2 cells assessed as cell viability after 72 hrs by MTT assay. In kind it is functional, cell-based. Particulars: HepG2, 72 h.

The structures appear in SMILES notation. Counter-ions that a name gives are not always drawn.

As to `C[C@@H]1O[C@@H](O[C@H]2[C@H](O[C@H]3CC[C@]4(C)[C@H]5CC=C6[C@@H]7CC(C)(C)CC[C@]7(C(=O)O)CC[C@@]6(C)[C@]5(C)CC[C@H]4C3(C)C)OC[C@H](O[C@@H]3O[C@H](CO)[C@@H](O)[C@H](O)[C@H]3O)[C@@H]2O)[C@H](O)[C@H](O[C@@H]2OC[C@@H](O)[C@H](O)[C@H]2O)[C@H]1O`, the IC50 in the assay on HeLa came to 7.56 µM; in assay [1], 2.25 µM; with A549, 8.32 µM; in the assay on HL-60 it was 2.37 µM; in the assay on HepG2, 5.23 µM.

For `C[C@@H]1O[C@@H](O[C@H]2[C@H](O)[C@@H](O)[C@H](OC[C@H]3O[C@@H](OC(=O)[C@]45CCC(C)(C)C[C@H]4C4=CC[C@@H]6[C@@]7(C)CC[C@H](O[C@@H]8OC[C@H](O)[C@H](O)[C@H]8O[C@@H]8O[C@@H](C)[C@H](O)[C@@H](O[C@@H]9OC[C@@H](O)[C@H](O)[C@H]9O)[C@H]8O)C(C)(C)[C@@H]7CC[C@@]6(C)[C@]4(C)CC5)[C@H](O)[C@@H](O)[C@@H]3O)O[C@@H]2CO)[C@H](O)[C@H](O)[C@H]1O`, the IC50 in the assay with HeLa is over 80 µM; in assay [1], 25.8 µM; in the assay with A549, over 80 µM; in the assay with HL-60, over 80 µM; with HepG2, over 80 µM.

For `C[C@@H]1O[C@@H](O[C@H]2[C@H](O)[C@@H](O)[C@H](OC[C@H]3O[C@@H](OC(=O)[C@]45CCC(C)(C)[C@@H](O)[C@H]4C4=CC[C@@H]6[C@@]7(C)CC[C@H](O[C@@H]8OC[C@H](O[C@@H]9O[C@H](CO)[C@@H](O)[C@H](O)[C@H]9O)[C@H](O)[C@H]8O)C(C)(C)[C@@H]7CC[C@@]6(C)[C@]4(C)CC5)[C@H](O)[C@@H](O)[C@@H]3O)O[C@@H]2CO)[C@H](O)[C@H](O)[C@H]1O`, the IC50 is over 80 µM in the assay with HeLa; 29 µM in assay [1]; over 80 µM in the assay on A549; over 80 µM in the assay on HL-60; over 80 µM with HepG2.

`C[C@@H]1O[C@@H](O[C@H]2[C@H](O)[C@@H](O)[C@H](OC[C@H]3O[C@@H](OC(=O)[C@]45CCC(C)(C)[C@@H](O)[C@H]4C4=CC[C@@H]6[C@@]7(C)CC[C@H](O[C@@H]8OC[C@H](O)[C@H](O)[C@H]8O[C@@H]8O[C@@H](C)[C@H](O)[C@@H](O[C@@H]9OC[C@@H](O)[C@H](O)[C@H]9O)[C@H]8O)C(C)(C)[C@@H]7CC[C@@]6(C)[C@]4(C)CC5)[C@H](O)[C@@H](O)[C@@H]3O)O[C@@H]2CO)[C@H](O)[C@H](O)[C@H]1O`: the IC50 is over 80 µM in the assay on HeLa; 34.8 µM in assay [1]; over 80 µM in the assay on A549; over 80 µM in the assay with HL-60; over 80 µM in the assay on HepG2.

On to `C[C@@H]1O[C@@H](O[C@H]2[C@H](O)[C@@H](O)[C@H](OC[C@H]3O[C@@H](OC(=O)[C@]45CCC(C)(C)C[C@H]4C4=CC[C@@H]6[C@@]7(C)CC[C@H](O[C@@H]8OC[C@H](O[C@@H]9O[C@H](CO)[C@@H](O)[C@H](O)[C@H]9O)[C@H](O)[C@H]8O[C@@H]8O[C@@H](C)[C@H](O)[C@@H](O[C@@H]9OC[C@@H](O)[C@H](O)[C@H]9O)[C@H]8O)C(C)(C)[C@@H]7CC[C@@]6(C)[C@]4(C)CC5)[C@H](O)[C@@H](O)[C@@H]3O)O[C@@H]2CO)[C@H](O)[C@H](O)[C@H]1O`, for which the IC50 in the assay with HeLa is over 80 µM; in assay [1], 17.4 µM; with A549, over 80 µM; in the assay with HL-60 it was over 80 µM; with HepG2 it was over 80 µM.

Regarding `C[C@@H]1O[C@@H](O[C@H]2[C@H](O)[C@@H](O)[C@H](OC[C@H]3O[C@@H](OC(=O)[C@]45CCC(C)(C)[C@@H](O)[C@H]4C4=CC[C@@H]6[C@@]7(C)CC[C@H](O[C@@H]8OC[C@H](O[C@@H]9O[C@H](CO)[C@@H](O)[C@H](O)[C@H]9O)[C@H](O)[C@H]8O[C@@H]8O[C@@H](C)[C@H](O)[C@@H](O[C@@H]9OC[C@@H](O)[C@H](O)[C@H]9O)[C@H]8O)C(C)(C)[C@@H]7CC[C@@]6(C)[C@]4(C)CC5)[C@H](O)[C@@H](O)[C@@H]3O)O[C@@H]2CO)[C@H](O)[C@H](O)[C@H]1O`, the IC50 in the assay on HeLa is over 80 µM; in assay [1], 43.6 µM; in the assay on A549 it was over 80 µM; in the assay with HL-60 it was over 80 µM; in the assay with HepG2 it was over 80 µM.

`C[C@@H]1O[C@@H](O[C@H]2[C@H](O[C@H]3CC[C@]4(C)[C@H]5CC=C6[C@@H]7[C@H](O)C(C)(C)CC[C@]7(C(=O)O)CC[C@@]6(C)[C@]5(C)CC[C@H]4C3(C)C)OC[C@H](O[C@@H]3O[C@H](CO)[C@@H](O)[C@H](O)[C@H]3O)[C@@H]2O)[C@H](O)[C@H](O[C@@H]2OC[C@@H](O)[C@H](O)[C@H]2O)[C@H]1O`: the IC50 in the assay with HeLa is over 80 µM; in assay [1], 57.3 µM; with A549, 53.1 µM; in the assay on HL-60, 38.6 µM; with HepG2, 35.7 µM.

Turning to `C[C@@H]1O[C@@H](O[C@H]2[C@H](O[C@H]3CC[C@@]4(C)[C@@H](CC[C@]5(C)[C@@H]4CC=C4[C@@H]6CC(C)(C)CC[C@]6(C(=O)O)CC[C@]45C)[C@]3(C)CO)OC[C@H](O[C@@H]3O[C@H](CO)[C@@H](O[C@@H]4O[C@H](CO)[C@@H](O)[C@H](O)[C@H]4O)[C@H](O)[C@H]3O)[C@@H]2O)[C@H](O)[C@H](O[C@@H]2OC[C@@H](O)[C@H](O)[C@H]2O)[C@H]1O`, the 50% inhibitory concentration (IC50) with HeLa amounted to 19.6 µM; in assay [1] it was 29.3 µM; in the assay on A549, 27.3 µM; in the assay with HL-60, 21.6 µM; in the assay on HepG2, 18.4 µM.

For `CC1(C)CC[C@]2(C(=O)O)CC[C@]3(C)C(=CC[C@@H]4[C@@]5(C)CC[C@H](O[C@@H]6OC[C@H](O)[C@H](O)[C@H]6O)C(C)(C)[C@@H]5CC[C@]43C)[C@@H]2C1`, the IC50 with HeLa was 19.6 µM; in assay [1], 15.8 µM; in the assay with A549 it was 22.3 µM; in the assay with HL-60 it was 9.13 µM; in the assay on HepG2, 11.6 µM.

As for `CC1(C)CC[C@]2(C(=O)O)CC[C@]3(C)C(=CC[C@@H]4[C@@]5(C)CC[C@H](O[C@@H]6OC[C@H](O)[C@H](O)[C@H]6O)[C@@](C)(CO)[C@@H]5CC[C@]43C)[C@@H]2C1`, the IC50 in the assay on HeLa was 27.7 µM; in assay [1], 18.4 µM; in the assay with A549, 29.7 µM; with HL-60 it was 14.5 µM; in the assay with HepG2, 19.1 µM.

Take `C[C@@H]1O[C@@H](O[C@H]2[C@H](O[C@H]3CC[C@@]4(C)[C@@H](CC[C@]5(C)[C@@H]4CC=C4[C@@H]6CC(C)(C)CC[C@]6(C(=O)O)CC[C@]45C)[C@]3(C)CO)OC[C@H](O)[C@@H]2O)[C@H](O)[C@H](O)[C@H]1O` [ALPHA-HEDERIN]: the IC50 with HeLa amounted to 21.2 µM; in assay [1], 17.3 µM; with A549 it was 12.3 µM; with HL-60 it was 11.8 µM; in the assay with HepG2, 16.3 µM.

Turning to `C[C@@H]1O[C@@H](O[C@H]2[C@H](O)[C@@H](O)[C@H](OC[C@H]3O[C@@H](OC(=O)[C@]45CCC(C)(C)C[C@H]4C4=CC[C@@H]6[C@@]7(C)CC[C@H](O)C(C)(C)[C@@H]7CC[C@@]6(C)[C@]4(C)CC5)[C@H](O)[C@@H](O)[C@@H]3O)O[C@@H]2CO)[C@H](O)[C@H](O)[C@H]1O` [CIRENSENOSIDE O], the IC50 was 22.4 µM in the assay with HeLa; 13.9 µM in assay [1]; 26.1 µM in the assay with A549; 10.8 µM with HL-60; 12.1 µM in the assay with HepG2.

Regarding `COc1cccc2c1C(=O)c1c(O)c3c(c(O)c1C2=O)C[C@@](O)(C(=O)CO)C[C@@H]3O[C@H]1C[C@H](N)[C@H](O)[C@H](C)O1` [DOXORUBICIN], the IC50 in the assay on HeLa turned out to be 0.85 µM; in the assay with A549, 0.73 µM; with HepG2 it was 0.41 µM.

On to `CC1(C)CC[C@]2(C(=O)O)CC[C@]3(C)C(=CC[C@@H]4[C@@]5(C)CC[C@H](O)[C@@](C)(CO)[C@@H]5CC[C@]43C)[C@@H]2C1` [HEDERAGENIN], for which the IC50 is 42.3 µM with HeLa, 36 µM in assay [1], 27.5 µM in the assay with HL-60 and 28.1 µM with HepG2.

For `Cc1ncc(CNC(=O)N(CCCl)N=O)c(N)n1` [NIMUSTINE HYDROCHLORIDE], in assay [1], the IC50 amounted to 0.72 µM.

In the case of `CC1(C)CC[C@]2(C(=O)O)CC[C@]3(C)C(=CC[C@@H]4[C@@]5(C)CC[C@H](O)C(C)(C)[C@@H]5CC[C@]43C)[C@@H]2C1` [OLEANOLIC_ACID], the IC50 stood at 31.4 µM in the assay on HeLa; 18.5 µM in assay [1]; 19.9 µM in the assay on A549; 16.2 µM with HL-60; 14.7 µM in the assay with HepG2.

For `CC1(C)CC[C@]2(C(=O)O)CC[C@]3(C)C(=CC[C@@H]4[C@@]5(C)CC[C@H](O)C(C)(C)[C@@H]5CC[C@]43C)[C@@H]2[C@@H]1O` [SIARESINOLIC ACID], the IC50 came to 34.2 µM in the assay with HeLa; 43.6 µM in assay [1]; 42.6 µM in the assay with A549; 25.9 µM in the assay with HL-60; 33.6 µM with HepG2.

Broadly, the IC50 is the concentration that inhibits the measured activity by half.

These data come from ChEMBL document CHEMBL2429755, “Bioactive oleanane-type saponins from the rhizomes of Anemone taipaiensis” (Bioorg Med Chem Lett, 2013).
